Assay [1] deals with T1, FAAH (Rattus norvegicus, UniProt P97612).
T1 construct: the rat brain microsomal fraction (final concentration of 4 μg/well) prepared in (2); from tissue; host or cells: brain of male Sprague-Dawley rats (microsomal fraction)
T1 sequence (P97612 1-579): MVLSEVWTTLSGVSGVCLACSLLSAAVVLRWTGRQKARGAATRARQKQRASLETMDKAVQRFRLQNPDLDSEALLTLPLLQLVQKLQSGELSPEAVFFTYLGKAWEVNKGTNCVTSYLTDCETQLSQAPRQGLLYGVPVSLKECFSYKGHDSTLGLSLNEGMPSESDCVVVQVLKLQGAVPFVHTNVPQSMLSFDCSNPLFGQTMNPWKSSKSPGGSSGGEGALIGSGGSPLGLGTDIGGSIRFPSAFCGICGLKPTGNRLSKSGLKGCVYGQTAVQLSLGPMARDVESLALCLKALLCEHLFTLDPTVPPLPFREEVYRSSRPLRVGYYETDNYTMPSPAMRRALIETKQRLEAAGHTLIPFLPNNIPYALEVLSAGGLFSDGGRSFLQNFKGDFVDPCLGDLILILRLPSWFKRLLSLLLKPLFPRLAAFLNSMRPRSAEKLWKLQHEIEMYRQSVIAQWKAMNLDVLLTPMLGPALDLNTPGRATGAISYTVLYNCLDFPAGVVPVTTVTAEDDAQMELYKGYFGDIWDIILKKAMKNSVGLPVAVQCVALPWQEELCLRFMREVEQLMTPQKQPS
As to the kind of experiment: In vitro FAAH inhibitory activity using rat brain microsomal fraction (AAMCA substrate, fluorescence). The format is biochemical. The following applies: 4 μg/well, 30 min incubation at room temperature, read-out: FAAH Inhibitory Activity IC50 Rat brain microsome. How it is done:
Male Sprague-Dawley (SD) rats of 10 weeks old were sacrificed by decapitation and the brains were removed. To the brains was added a buffer solution (50 mmol/L HEPES (pH 8.0), 1 mmol/L EDTA, 0.32 mol/L sucrose, Complete EDTA-free (Roche Diagnostics)) of 5-fold volume with respect to the brain wet weight, which was homogenized in a Potter homogenizer. The homogenate was centrifuged (9000 g, 10 mins., 4° C.) to collect the supernatant. The supernatant was further ultracentrifuged (105000 g, 60 mins., 4° C.) to collect the precipitates. The precipitates were suspended in a buffer solution (50 mmol/L HEPES (pH 8.0), 1 mmol/L EDTA) of ¼ volume with respect to the wet weight of the precipitates to quantify the protein level with the BCA Protein Assay (PIERCE).
(§1) In a 384 well plate (Corning), were added the dilutions of compounds to be tested in various concentrations with 30 μL of a buffer solution (50 mmol/L HEPES (pH 7.4), 1 mmol/L EDTA, 0.1% bovine serum albumin) and the U-937 microsomal fraction (final concentration of 6 μg/well) prepared in (1) or the rat brain microsomal fraction (final concentration of 4 μg/well) prepared in (2), followed by preincubation for 5 minutes at room temperature. AAMCA (SIGMA, (final concentration of 4 mmol/L) as a substrate was added thereto, and the U-937 microsomal fraction was incubated for 120 minutes and the rat brain microsomal fraction for 30 minutes, at room temperature. Before and after the incubation, fluorescence counts were measured using EnVision 2000 (Perkin Elmer) at an excitation wavelength of 355 nm with an emission wavelength of 460 nm to calculate the difference. The count of the well added with the solvent in place of the compound tested and the count of the well added with no microsome were made 0% and 100%, respectively, and the inhibitory activity of each compound tested was determined.
(§2) The FAAH inhibitory activity of the test compound was expressed by IC50 value. The compound of the present invention showing the IC50 value smaller than 0.1 μmol/L, the compound showing the IC50 value not smaller than 0.1 μmol/L and smaller than 1 μmol/L and the compound showing the IC50 value not smaller than 1 μmol/L were designated as +++, ++ and +, respectively, which are shown in TABLE 1.

The target in assay [2] is T2, FAAH (Homo sapiens, UniProt O00519).
T2 construct: the U-937 microsomal fraction (final concentration of 6 μg/well) prepared in (1); endogenous in cells; host or cells: U-937 cells (microsomal fraction)
T2 sequence (O00519 1-579): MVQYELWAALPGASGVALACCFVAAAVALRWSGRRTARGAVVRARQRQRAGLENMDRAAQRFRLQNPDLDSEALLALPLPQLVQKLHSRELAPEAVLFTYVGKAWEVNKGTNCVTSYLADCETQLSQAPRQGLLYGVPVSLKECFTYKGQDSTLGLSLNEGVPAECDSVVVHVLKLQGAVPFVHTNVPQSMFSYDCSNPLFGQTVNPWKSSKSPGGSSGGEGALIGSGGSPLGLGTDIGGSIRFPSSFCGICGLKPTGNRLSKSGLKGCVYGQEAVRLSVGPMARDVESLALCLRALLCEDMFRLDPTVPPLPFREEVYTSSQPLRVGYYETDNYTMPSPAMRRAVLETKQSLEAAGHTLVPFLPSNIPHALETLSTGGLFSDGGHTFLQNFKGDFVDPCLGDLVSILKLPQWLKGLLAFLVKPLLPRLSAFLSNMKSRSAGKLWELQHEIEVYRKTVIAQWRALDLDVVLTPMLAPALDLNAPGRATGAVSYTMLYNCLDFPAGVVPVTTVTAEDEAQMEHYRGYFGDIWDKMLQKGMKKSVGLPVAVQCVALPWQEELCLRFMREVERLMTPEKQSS
The experiment in a line: In vitro FAAH inhibitory activity using U-937 microsomal fraction (AAMCA substrate, fluorescence). The format is biochemical. Conditions: 6 μg/well, 120 min incubation at room temperature, read-out: FAAH Inhibitory Activity IC50 U-937 microsome. How it is done:
The cultured U-937 cells were harvested, and 0.33-fold volume of buffer solution (50 mmol/L HEPES-NaOH (pH 7.4), 1 mmol/L EDTA, Complete EDTA-free (Roche Diagnostics)) was added to the cells, which was suspended and homogenized. After ultrasonication, the cells were further homogenized and centrifuged (600 g, 10 mins., 4° C.) to collect the supernatant. The supernatant collected was again centrifuged (12000 g, 20 mins., 4° C.), and the supernatant was ultracentrifuged (100000 g, 60 mins., 4° C.) to collect the precipitates. The precipitates were suspended in a buffer solution (50 mmol/L HEPES-NaOH (pH 7.4), 1 mmol/L EDTA) of 5-fold volume with respect to the wet weight of the precipitates to quantify the protein level with the BCA Protein Assay (PIERCE).
as §1, §2

For orientation: IC50 means the concentration needed to halve the response being measured. For `O=C(Nc1ccccc1)N1CCC(c2noc3cc(F)ccc23)CC1` [Example 1, N-Phenyl-4-(6-fluoro-1,2-benzisoxazo-3-yl)piperidine-1-carboxamide], the IC50 on FAAH [1] was > 1000 nM; on FAAH [2], 100 to 1000 nM.
For the molecule `O=C(Nc1cccnn1)N1CCN(C2CCOc3ccc(Oc4ccc(C(F)(F)F)cn4)cc32)CC1` (centres unmarked) [Example 5, N-Pyridazin-3-yl-4-[6-[[5-(trifluoromethyl)-2-pyridinyl]oxy]-3,4-dihydro-2H-1-benzopyran-4-yl]piperazine-1-carboxamide], the IC50 at FAAH [1] and at FAAH [2] was 100 to 1000 nM in each case.
In the case of `CC1(C)CC(N2CCN(C(=O)Nc3cccnn3)CC2)c2ccc(C(F)(F)F)cc2O1` (centres unmarked) [Example 9, N-Pyridazin-3-yl-4-[2,2-dimethyl-7-(trifluoromethyl)-3,4-dihydro-2H-1-benzopyran-4-yl]piperazine-1-carboxamide], the values for the IC50 at FAAH [1] and on FAAH [2] were 100 to 1000 nM and > 1000 nM, respectively.
The like results for `O=C(Nc1cccnn1)N1CCN(C2CCCOc3cc(C(F)(F)F)ccc32)CC1` (centres unmarked) [Example 10, N-Pyridazin-3-yl-4-[8-(trifluoromethyl)-2,3,4,5-tetrahydrobenz-1-oxepin-5-yl]piperazine-1-carboxamide] were, in that order, 100 to 1000 nM and 100 to 1000 nM.
The like results for `O=C(Nc1cccnn1)N1CCN(C2CCOc3cc(C(F)(F)F)c(F)cc32)CC1` (centres unmarked) [Example 12, N-Pyridazin-3-yl-4-[6-fluoro-7-(trifluoromethyl)-3,4-dihydro-2H-1-benzopyran-4-yl]piperazine-1-carboxamide] were, in that order, < 100 nM and 100 to 1000 nM.
For `O=C(Nc1ccccc1)N1CCN(C2CCOc3cc(C(F)(F)F)ccc32)C(=O)C1` (centres unmarked) [Example 15, N-Phenyl-3-yl-4-[7-(trifluoromethyl)-3,4-dihydro-2H-1-benzopyran-4-yl]-3-oxo-piperazine-1-carboxamide], the IC50 at FAAH [1] and on FAAH [2] was 100 to 1000 nM in each case.
For the molecule `O=C(Nc1cccnc1)N1CCN(C2CCOc3cc(C(F)(F)F)ccc32)CC1` (centres unmarked) [Example 17, N-Pyridine-3-yl-4-[7-(trifluoromethyl)-3,4-dihydro-2H-1-benzopyran-4-yl]piperazine-1-carboxamide], the IC50 on FAAH [1] and at FAAH [2] was < 100 nM each time.
As for `Cc1ccc(NC(=O)N2CCN(C3CCOc4cc(C(F)(F)F)ccc43)CC2)cn1` (centres unmarked) [Example 18, N-(6-Methyl-pyridine-3-yl)-4-[7-(trifluoromethyl)-3,4-dihydro-2H-1-benzopyran-4-yl]piperazine-1-carboxamide], the IC50 on FAAH [1] was 100 to 1000 nM; on FAAH [2] it was < 100 nM.
The like results for `O=C(Nc1nccs1)N1CCN(C2CCOc3cc(C(F)(F)F)ccc32)CC1` (centres unmarked) [Example 22, N-(1,3-Thiazol-2-yl)-4-[7-(trifluoromethyl)-3,4-dihydro-2H-1-benzopyran-4-yl]piper azine-1-carboxamide] were, in that order, > 1000 nM and > 1000 nM.
As for `O=C(Nc1cccnn1)N1CCC(N2CCOc3cc(C(F)(F)F)ccc32)CC1` [Example 24, N-Pyridazin-3-yl-4-[7-(trifluoromethyl)-2,3-dihydro-1,4-benzoxazin-4-yl]piperidine-1-carboxamide], the figures for the IC50 at FAAH [1] and at FAAH [2] were 100 to 1000 nM and < 100 nM, respectively.
The like results for `O=C(Nc1cccnc1)N1CCN(C2CCOc3c2ccc(F)c3F)CC1` (centres unmarked) [Example 35, 4-(7,8-Difluoro-3,4-dihydro-2H-chromen-4-yl)-N-(pyridine-3-yl)piperazine-1-carboxamide] were, in that order, < 100 nM and < 100 nM.
For `O=C(Nc1cnccn1)N1CCN(C2CCOc3cc(C(F)(F)F)ccc32)CC1` (centres unmarked) [Example 52, N-(Pyrazin-2-yl)-4-[7-(trifluoromethyl)-3,4-dihydro-2H-chromen-4-yl]piperazine-1-carboxamide], the IC50 on FAAH [1] and at FAAH [2] was < 100 nM throughout.
In the case of “N-(6-Methoxypyridazin-2-yl)-4-[7-(trifluoromethyl)-3,4-dihydro-2H-1-benzopyran-4-yl]piperazine-1-carboxamide [Example 21]”, the IC50 on FAAH [1] and on FAAH [2] was 100 to 1000 nM throughout.
